Data as given in patent US6358921B1, “Antimicrobial peptide compositions and method” (priority 1996, dated 2002).

Legend:
P. aeruginosa H187 = format: cell-based, Pseudomonas aeruginosa; conditions: H187
Source text: (§1) The following bacterial strains were utilized: Escherichia coli UB1005 (wt) and its antibiotic supersusceptible derivative DC2 (Clark, 1984); Excherichia coli SC9251 and its polymixin B rasistant mutant pmrA SC9252 (Peterson, et al., 1987) Pseudomonas aeruginosa H187 (wt) (Angus, et al., 1987) and its antibiotic-sensitive derivative H188 (Zimmerman, W, Antimicrob. Agents Chemother. 18: 94-100, 1980); methicillin sensitive Staphylococcus aureus K147 (Kreiswirth, et al., 1983); Staphylococcus aureus SAP0017, a methicillin resistant clinical isolate from Dr. A. Chow (University of British Columia); Bacillus subtilis, an environmental wt lab strain. Enterococcus faecalis are ATCC 29212 cells and Staphylococcus epidermidis was a clinical isolate from Dr. D. Speert (University of British Columbia). Antifungal activity was tested using a clinical lab isolate of Candida albicans. Salmonella typhinurium C57 and C610 (Fields, P.I., et al., Science 243: 1059-1062 (1989) Corynebacterium xerosis was an environmental isolate (University of British Columbia).
(§2) It is now apparent that agar-based assays severely underestimate antifungal activity as well as activity against gram negative microorganisms (Kondejewski, et al., 1996). Consequently, in the studies reported herein, a liquid-broth method was used to measure the antibiotic properties of the peptides. […] Briefly, cells were grown overnight at 37° C. in LB and diluted in the same medium. Serial dilutions of antibiotics were added to the microtitre plates in a volume of 100 μL followed by 10 μL of bacteria to give a final inoculum of 5×10^5 CFU/mL. Plates were incubated at 37° C. overnight and MICs determined as the lowest antibiotic concentration that inhibited growth.
(§3) The results from antimicrobial and hemolytic assays are combined to provide a “Therapeutic Index” (TI) for each peptide with respect to individual microorganisms. As reported herein, the TI is calculated as the hemolytic activity divided by the antimicrobial activity. The TI thus is a measure of specificity of the particular peptide for microbial membranes as opposed to human blood cell membranes. In the present studies, antimicrobial activities are reported as minimum inhibitory concentrations (MIC)—the lowest concentration of peptide (μg/ml) found to inhibit growth of the particular microbe. Hemolytic activity is reported as the concentration of peptide that effected complete lysis of blood cells after four hours. Thus, in the context of the present invention high TI values indicate microbial specificity and relative lack of toxicity.

C. xeroses = format: cell-based, Corynebacterium xerosis
Source text: as §1
as §2, with “growth. […]” for “growth.”

S. typhinurium C610 = format: cell-based, Salmonella typhinurium
Source text: as §1
as §2, with “growth. […]” for “growth.”

S. typhinurium C587 = format: cell-based, Salmonella typhinurium
Source text: as §1
as §2, with “growth. […]” for “growth.”

S. aureus K147 = format: cell-based, Staphylococcus aureus
Source text: as §1, §2, §3

S. aureus SAP0017 = format: cell-based, Staphylococcus aureus
Source text: as §1, §2, §3

E. coli UB1005 = format: cell-based, Escherichia coli; conditions: UB1005
Source text: as §1
as §2, with “growth. […]” for “growth.”

B. subtilis = format: cell-based, Bacillus subtilis
Source text: as §1
as §2, with “growth. […]” for “growth.”

E. faecalis = format: cell-based, Enterococcus faecalis
Source text: as §1
as §2, with “growth. […]” for “growth.”

E. coli DC2 = format: cell-based, Escherichia coli; conditions: DC2
Source text: as §1, §2, §3

S. epidermidis = format: cell-based, Staphylococcus epidermidis
Source text: as §1
as §2, with “growth. […]” for “growth.”

C. Albicans = format: cell-based, Candida albicans
Source text: as §1
as §2, with “growth. […]” for “growth.”

[1] = Displacement of dansyl-polymyxin from LPS; format: binding, P. aeruginosa; conditions: read-out: LPS binding affinity: peptide concentration to displace 50% of dansyl-polymyxin B from LPS; Tables 1, 4, 7
Source text: In order to determine whether ring size affects the interaction between the peptide and bacterial membranes, we studied the interaction between the GS ring analogs and bacterial lipopolysaccharide (LPS). It has been shown previously that dansyl-polymixin (DPX) is a good probe for cationic binding sites on both purified LPS as well as whole bacterial cells (Example 8; Moore, et al., 1986; Sawyer, et al., 1988; Hancock, 1981). […] The LPS binding activity of various GS analogs was investigated, as discussed above.
Dansyl-polymixin (DPX) displacement from P. aeruginosa LPS was measured as described (Moore, et al., 1986). Briefly, peptides were titrated into cuvettes containing 3 μg of LPS per mL and 2.5 μM dansyl-polymixin (approximately 90% saturation of LPS binding sites) in 1 mL of 5 mM sodium HEPES buffer, pH 7.0, and the decrease in fluorescence recorded. A plot of the inverse of the percent inhibition as a function of the inverse of inhibitor concentration gave a value for I50, the inhibitor concentration resulting in 50% displacement of dansyl-polymixin from LPS (−1/× intercept).

P. aeruginosa H188 = format: cell-based, Pseudomonas aeruginosa; conditions: H188
Source text: as §1
as §2, with “growth. […]” for “growth.”

SMILES | Minimum Inhibitory Concentration (activity) (P. aeruginosa H187) | Minimum Inhibitory Concentration (activity) (C. xeroses) | Minimum Inhibitory Concentration (activity) (S. typhinurium C610) | Minimum Inhibitory Concentration (activity) (S. typhinurium C587) | Minimum Inhibitory Concentration (activity) (S. aureus K147) | Minimum Inhibitory Concentration (activity) (S. aureus SAP0017) | Minimum Inhibitory Concentration (activity) (E. coli UB1005) | Minimum Inhibitory Concentration (activity) (B. subtilis) | Minimum Inhibitory Concentration (activity) (E. faecalis) | Minimum Inhibitory Concentration (activity) (E. coli DC2) | Minimum Inhibitory Concentration (activity) (S. epidermidis) | Minimum Inhibitory Concentration (activity) (C. Albicans) | IC50 [1] | Minimum Inhibitory Concentration (activity) (P. aeruginosa H188)
CC(C)C[C@@H]1NC(=O)[C@@H](CCCCN)NC(=O)[C@H](C(C)C)NC(=O)[C@@H](CCCCN)NC(=O)[C@H](CC(C)C)NC(=O)[C@@H]2CCCN2C(=O)[C@@H](Cc2ccc(O)cc2)NC(=O)[C@H](C(C)C)NC(=O)[C@@H](CCCCN)NC(=O)[C@H](CC(C)C)NC(=O)[C@@H](CCCCN)NC(=O)[C@H](C(C)C)NC(=O)[C@@H]2CCCN2C(=O)[C@@H](Cc2ccc(O)cc2)NC1=O [GS14K2K4K9K11] | >200 µg/mL | 25 µg/mL | 25 µg/mL | >200 µg/mL | >200 µg/mL | >200 µg/mL | 100 µg/mL | >200 µg/mL | >200 µg/mL | 50 µg/mL | >200 µg/mL | >200 µg/mL | 200 µM | –
CC(C)C[C@@H]1NC(=O)[C@H](CCCCN)NC(=O)[C@H](C(C)C)NC(=O)[C@H](CCCCN)NC(=O)[C@H](CC(C)C)NC(=O)[C@@H]2CCCN2C(=O)[C@@H](Cc2ccc(O)cc2)NC(=O)[C@H](C(C)C)NC(=O)[C@@H](CCCCN)NC(=O)[C@H](CC(C)C)NC(=O)[C@@H](CCCCN)NC(=O)[C@H](C(C)C)NC(=O)[C@@H]2CCCN2C(=O)[C@@H](Cc2ccc(O)cc2)NC1=O [GS14K2K4] | 150 µg/mL | 9 µg/mL | 25 µg/mL | 200 µg/mL | >200 µg/mL | >200 µg/mL | 50 µg/mL | >200 µg/mL | >200 µg/mL | 6.2 µg/mL | 100 µg/mL | 200 µg/mL | 120 µM | –
CC(C)C[C@@H]1NC(=O)[C@H](CCCCN)NC(=O)[C@H](C(C)C)NC(=O)[C@@H]2CCCN2C(=O)[C@@H](Cc2ccc(O)cc2)NC(=O)[C@H](CC(C)C)NC(=O)[C@H](CCCCN)NC(=O)[C@H](C(C)C)NC(=O)[C@H](CCCCN)NC(=O)[C@H](CC(C)C)NC(=O)[C@@H]2CCCN2C(=O)[C@H](Cc2ccc(O)cc2)NC(=O)[C@H](C(C)C)NC(=O)[C@H](CCCCN)NC1=O [GS14Y6] | 200 µg/mL | 1 µg/mL | 100 µg/mL | >200 µg/mL | >200 µg/mL | >200 µg/mL | 50 µg/mL | >200 µg/mL | 3.1 µg/mL | 3.1 µg/mL | 6.2 µg/mL | – | 20 µM | 50 µg/mL
